Series [1] deals with P. falciparum Dd2 strain. Description: Antiplasmodial 72 h growth assay. The series is classed as cell-based, Plasmodium falciparum. As to conditions: relative to trichospirolide B (2).
Series [2] can be described thus: Stability on storage. The format is physicochemical. The note with it: storage at −23 °C.

Molecules are shown by their SMILES.

As to `C=C(C)C(=O)O[C@H]1C/C(C)=C\C(=O)/C=C(C)/C=C2/OC(=O)C(COC(C)=O)=C21` [Compound 1, 1(10)Z,3E,5E,7(12)Z-(8S)-13-acetoxy-8-methacryloyloxy-2-oxogermacra-1,3,5,7-tetraen-6,12-olide], the “Fold higher antiplasmodial potency than trichospirolide B” value in series [1] is reported as 25 fold.

Take `C=C(C)C(=O)O[C@H]1C/C(C)=C\C(=O)C[C@@]2(C)O[C@H]2[C@H]2OC(=O)C(COC(C)=O)=C12` [Compound 3, 1(10)Z,7(11)Z-(4R,5S,6S,8S)-13-acetoxy-4,5-epoxy-8-methacryloyloxy-2-oxogermacra-1,7-dien-6,12-olide]: the “Fold higher antiplasmodial potency than trichospirolide B” value in series [1] was 3 fold. With `C=C(C)C(=O)O[C@@H]1C/C(C)=C\[C@@]2(O)C=C(C)[C@H](O2)[C@H]2OC(=O)C(COC(C)=O)=C12` [Compound 4, 1(10)Z,3Z,7(11)Z-(2S,5S,6S,8R)-13-acetoxy-2,5-epoxy-2-hydroxy-8-O-methacryloyloxygermacra-1(10),3,7(11)-trien-6,12-olide], the Stability on storage entry in series [2] was “moderately unstable”.

These data come from paper PMC5679103 (Journal of natural products, 2017).
